Assays:
Neratinib/HKI272 = compound: CCOc1cc2ncc(C#N)c(Nc3ccc(OCc4ccccn4)c(Cl)c3)c2cc1NC(=O)/C=C/CN(C)C [Neratinib/HKI272]; assay: increase in dead-cell fraction, 72 h; higher = more death;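 further: breast cancer cell lines in 384-well plates, stained with Hoechst plus LIVE/DEAD far red dye and imaged, cells above an LDR intensity threshold counted dead, Hoechst-negative corpses included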
BSJ-03-123 = compound: CC(=O)c1c(C)c2cnc(Nc3ccc(N4CCN(CCOCCOCCOCCNC(=O)COc5cccc6c5C(=O)N(C5CCC(=O)NC5=O)C6=O)CC4)cn3)nc2n(C2CCCC2)c1=O [BSJ-03-123]; assay: as above
[1] = compound: CC(=O)c1c(C)c2cnc(Nc3ccc(N4CCNCC4)cn3)nc2n(C2CCCC2)c1=O; assay: as above
[2] = compound: CCc1cnn2c(NCc3ccc[n+]([O-])c3)cc(N3CCCC[C@H]3CCO)nc12; assay: as above
YKL-5-124 = compound: C=CC(=O)Nc1ccc(C(=O)Nc2[nH]nc3c2CN(C(=O)N[C@H](CN(C)C)c2ccccc2)C3(C)C)cc1 [YKL-5-124]; assay: as above
THZ531 [3] = compound: T1, CN(C)C/C=C/C(=O)Nc1ccc(C(=O)N2CCC[C@@H](Nc3ncc(Cl)c(-c4c[nH]c5ccccc45)n3)C2)cc1 [THZ531]; assay: as above
THZ1 [4] = compound: T2, CN(C)C/C=C/C(=O)Nc1ccc(C(=O)Nc2cccc(Nc3ncc(Cl)c(-c4c[nH]c5ccccc45)n3)c2)cc1 [THZ1]; assay: as above
LEE011/Ribociclib = compound: CN(C)C(=O)c1cc2cnc(Nc3ccc(N4CCNCC4)cn3)nc2n1C1CCCC1 [LEE011/Ribociclib]; assay: as above
[5] = compound: CO[C@@H](C)Cn1c(=O)n(C)c2cnc3ccc(-c4cncc(C(C)(C)O)c4)cc3c21
[6] = compound: CC(=O)Nc1cccc(-n2c(=O)n(C3CC3)c(=O)c3c(Nc4ccc(I)cc4F)n(C)c(=O)c(C)c32)c1
Alpelisib/BYL719 = compound: Cc1nc(NC(=O)N2CCC[C@H]2C(N)=O)sc1-c1ccnc(C(C)(C)C(F)(F)F)c1 [Alpelisib/BYL719]
[7] = compound: CCCCOc1c(C(=O)c2c(F)cc(C)cc2F)c[nH]c2nncc1-2
AZD1775 = compound: C=CCn1c(=O)c2cnc(Nc3ccc(N4CCN(C)CC4)cc3)nc2n1-c1cccc(C(C)(C)O)n1 [AZD1775]
[8] = compound: COc1ccc2c(c1)[C@]1(C[C@H]1c1ccc3c(/C=C/c4ccc(CN5C[C@@H](C)O[C@@H](C)C5)cc4)n[nH]c3c1)C(=O)N2
THZ531 [9] = compound: T1, THZ531
THZ1 [10] = compound: T2, THZ1
BVD523 = compound: CC(C)Nc1cc(-c2c[nH]c(C(=O)N[C@H](CO)c3cccc(Cl)c3)c2)c(Cl)cn1 [BVD523]
Rucaparib = compound: CNCc1ccc(-c2[nH]c3cc(F)cc4c3c2CCNC4=O)cc1 [Rucaparib]
Cediranib/AZD2171 = compound: COc1cc2c(Oc3ccc4[nH]c(C)cc4c3F)ncnc2cc1OCCCN1CCCC1 [Cediranib/AZD2171]
Saracatinib/AZD0530 = compound: CN1CCN(CCOc2cc(OC3CCOCC3)c3c(Nc4c(Cl)ccc5c4OCO5)ncnc3c2)CC1 [Saracatinib/AZD0530]
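Wherever GR50, 72 h is given: breast cancer and non-malignant breast epithelial cell lines, Deep Dye Drop or Dye Drop imaging, nine half-log doses, GR normalized to time-zero plates and DMSO-only controls.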

## SUM229PE
Neratinib/HKI272; 0.0003162 µM
  increase in dead-cell fraction: 0.0008
Neratinib/HKI272; 0.001 µM
  increase in dead-cell fraction: 0.0005
Neratinib/HKI272; 0.003162 µM
  increase in dead-cell fraction: -0.0005
Neratinib/HKI272; 0.01 µM
  increase in dead-cell fraction: 0.0001
Neratinib/HKI272; 0.03162 µM
  increase in dead-cell fraction: 0.0043
Neratinib/HKI272; 0.1 µM
  increase in dead-cell fraction: 0.0062
Neratinib/HKI272; 0.3162 µM
  increase in dead-cell fraction: 0.0046
Neratinib/HKI272; 1 µM
  increase in dead-cell fraction: 0.0111
Neratinib/HKI272; 3.162 µM
  increase in dead-cell fraction: 0.0132
BSJ-03-123; 0.001 µM
  increase in dead-cell fraction: 0.0053
BSJ-03-123; 0.003162 µM
  increase in dead-cell fraction: 0.0041
BSJ-03-123; 0.01 µM
  increase in dead-cell fraction: -0.0026
BSJ-03-123; 0.03162 µM
  increase in dead-cell fraction: -0.0037
BSJ-03-123; 0.1 µM
  increase in dead-cell fraction: 0.0091
BSJ-03-123; 0.3162 µM
  increase in dead-cell fraction: 0.0164
BSJ-03-123; 1 µM
  increase in dead-cell fraction: 0.007
BSJ-03-123; 3.162 µM
  increase in dead-cell fraction: 0.0152
BSJ-03-123; 10 µM
  increase in dead-cell fraction: 0.0241
[1]; 0.0003162 µM
  increase in dead-cell fraction: -0.0072
[1]; 0.001 µM
  increase in dead-cell fraction: 0.0057
[1]; 0.003162 µM
  increase in dead-cell fraction: -0.0076
[1]; 0.01 µM
  increase in dead-cell fraction: -0.0059
[1]; 0.03162 µM
  increase in dead-cell fraction: -0.0018
[1]; 0.1 µM
  increase in dead-cell fraction: -0.0045
[1]; 0.3162 µM
  increase in dead-cell fraction: -0.0032
[1]; 1 µM
  increase in dead-cell fraction: -0.0082
[1]; 3.162 µM
  increase in dead-cell fraction: 0.009
[2]; 0.0001 µM
  increase in dead-cell fraction: -0.0001
[2]; 0.0003162 µM
  increase in dead-cell fraction: -0.0086
[2]; 0.001 µM
  increase in dead-cell fraction: 0.0057
[2]; 0.003162 µM
  increase in dead-cell fraction: -0.0015
[2]; 0.01 µM
  increase in dead-cell fraction: 0.0106
[2]; 0.03162 µM
  increase in dead-cell fraction: 0.0583
[2]; 0.1 µM
  increase in dead-cell fraction: 0.0925
[2]; 0.3162 µM
  increase in dead-cell fraction: 0.0682
[2]; 1 µM
  increase in dead-cell fraction: 0.0926
YKL-5-124; 0.001 µM
  increase in dead-cell fraction: 0.0368
YKL-5-124; 0.003162 µM
  increase in dead-cell fraction: 0.0432
YKL-5-124; 0.01 µM
  increase in dead-cell fraction: 0.0321
YKL-5-124; 0.03162 µM
  increase in dead-cell fraction: 0.0316
YKL-5-124; 0.1 µM
  increase in dead-cell fraction: 0.0267
YKL-5-124; 0.3162 µM
  increase in dead-cell fraction: 0.0384
YKL-5-124; 1 µM
  increase in dead-cell fraction: 0.0161
YKL-5-124; 3.162 µM
  increase in dead-cell fraction: 0.0213
YKL-5-124; 10 µM
  increase in dead-cell fraction: 0.0246
THZ531 [3]; 0.0001 µM
  increase in dead-cell fraction: 0.0065
THZ531 [3]; 0.0003162 µM
  increase in dead-cell fraction: 0.0019
THZ531 [3]; 0.001 µM
  increase in dead-cell fraction: -0.0006
THZ531 [3]; 0.003162 µM
  increase in dead-cell fraction: 0.0039
THZ531 [3]; 0.01 µM
  increase in dead-cell fraction: -0.0022
THZ531 [3]; 0.03162 µM
  increase in dead-cell fraction: -0.005
THZ531 [3]; 0.1 µM
  increase in dead-cell fraction: -0.0018
THZ531 [3]; 0.3162 µM
  increase in dead-cell fraction: 0.0175
THZ531 [3]; 1 µM
  increase in dead-cell fraction: 0.0884
THZ1 [4]; 0.0001 µM
  increase in dead-cell fraction: 0.0012
THZ1 [4]; 0.0003162 µM
  increase in dead-cell fraction: 0.0126
THZ1 [4]; 0.001 µM
  increase in dead-cell fraction: 0.0025
THZ1 [4]; 0.003162 µM
  increase in dead-cell fraction: 0.0048
THZ1 [4]; 0.01 µM
  increase in dead-cell fraction: 0.0291
THZ1 [4]; 0.03162 µM
  increase in dead-cell fraction: 0.0152
THZ1 [4]; 0.1 µM
  increase in dead-cell fraction: 0.0835
THZ1 [4]; 0.3162 µM
  increase in dead-cell fraction: 0.124
THZ1 [4]; 1 µM
  increase in dead-cell fraction: 0.127
LEE011/Ribociclib; 0.001 µM
  increase in dead-cell fraction: 0.0025
LEE011/Ribociclib; 0.003162 µM
  increase in dead-cell fraction: -0.003
LEE011/Ribociclib; 0.01 µM
  increase in dead-cell fraction: 0.0012
LEE011/Ribociclib; 0.03162 µM
  increase in dead-cell fraction: 0.0068
LEE011/Ribociclib; 0.1 µM
  increase in dead-cell fraction: 0.0061
LEE011/Ribociclib; 0.3162 µM
  increase in dead-cell fraction: 0.0005
LEE011/Ribociclib; 1 µM
  increase in dead-cell fraction: 0.0021
LEE011/Ribociclib; 3.162 µM
  increase in dead-cell fraction: 0.0223
LEE011/Ribociclib; 10 µM
  increase in dead-cell fraction: 0.0109
[5]
  GR50, 72 h: 0.453 µM
[6]
  GR50, 72 h: 0.00774 µM
Alpelisib/BYL719
  GR50, 72 h: > 10 µM
[7]
  GR50, 72 h: 0.0124 µM
AZD1775
  GR50, 72 h: 0.00928 µM
[8]
  GR50, 72 h: 0.00229 µM
THZ531 [9]
  GR50, 72 h: 0.314 µM
THZ1 [10]
  GR50, 72 h: 0.0185 µM
BVD523
  GR50, 72 h: 1.6 µM
Rucaparib
  GR50, 72 h: > 10 µM
Cediranib/AZD2171
  GR50, 72 h: 8.64 µM
Saracatinib/AZD0530
  GR50, 72 h: 5.44 µM

Source: the supplement of paper PMC9663587
